From patent US9611267B2, “Substituted tricyclic compounds as FGFR inhibitors” (Incyte Corporation, priority 2012, dated 2017)

What was measured:
Format in all cases: biochemical
FGFR2 = FGFR2 (Homo sapiens (Human), UniProt P21802); assay: FGFR enzymatic assay (FRET peptide phosphorylation), FGFR2; settings: FGFR2 enzyme 0.01 nM, ATP 100 μM
Procedure, shortened: (§1)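 IC50 values were obtained from variable-slope sigmoidal dose-response fitting of a FRET read-out of peptide phosphorylation. The buffer, described for FGFR3, was 50 mM HEPES pH 7.5 with MgCl2, EGTA, Tween-20 and DTT.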

FGFR3 = FGFR3 (Homo sapiens (Human), UniProt P22607); assay: FGFR enzymatic assay (FRET peptide phosphorylation), FGFR3; settings: FGFR3 enzyme (Millipore), ATP 140 μM
Sequence of FGFR3 (P22607 23-806): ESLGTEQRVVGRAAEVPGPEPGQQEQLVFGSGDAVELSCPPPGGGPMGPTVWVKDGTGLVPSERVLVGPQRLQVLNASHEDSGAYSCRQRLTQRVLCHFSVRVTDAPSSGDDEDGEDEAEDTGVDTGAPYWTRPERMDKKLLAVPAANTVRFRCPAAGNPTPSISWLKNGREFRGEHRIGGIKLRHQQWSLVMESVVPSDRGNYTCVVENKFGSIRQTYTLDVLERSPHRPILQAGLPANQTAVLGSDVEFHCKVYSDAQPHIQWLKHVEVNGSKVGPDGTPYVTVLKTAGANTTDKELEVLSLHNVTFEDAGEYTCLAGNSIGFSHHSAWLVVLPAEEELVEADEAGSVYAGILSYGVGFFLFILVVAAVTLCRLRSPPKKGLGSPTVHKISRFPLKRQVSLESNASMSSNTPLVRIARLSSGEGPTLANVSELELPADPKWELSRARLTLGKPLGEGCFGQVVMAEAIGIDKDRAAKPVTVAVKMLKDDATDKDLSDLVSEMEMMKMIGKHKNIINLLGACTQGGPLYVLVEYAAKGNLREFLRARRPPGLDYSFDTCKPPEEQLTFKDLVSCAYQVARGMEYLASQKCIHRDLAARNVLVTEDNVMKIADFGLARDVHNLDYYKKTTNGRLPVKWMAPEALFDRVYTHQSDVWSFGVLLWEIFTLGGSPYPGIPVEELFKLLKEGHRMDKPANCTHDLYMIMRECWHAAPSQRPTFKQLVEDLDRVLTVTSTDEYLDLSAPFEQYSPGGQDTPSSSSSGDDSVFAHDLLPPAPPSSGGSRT
Procedure, shortened: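 After 5-10 min pre-incubation of FGFR3 with serially diluted compound in pH 7.5 HEPES/MgCl2/EGTA/DTT buffer, the reaction proceeded 1 hr at 25° C. Phosphorylated peptide was detected by FRET, and IC50 was fitted with a variable-slope sigmoid.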

FGFR1 = FGFR1 (Homo sapiens (Human), UniProt P11362); assay: FGFR enzymatic assay (FRET peptide phosphorylation), FGFR1; settings: FGFR1 enzyme 0.02 nM, ATP 210 μM
Sequence of FGFR1 (P11362 22-822): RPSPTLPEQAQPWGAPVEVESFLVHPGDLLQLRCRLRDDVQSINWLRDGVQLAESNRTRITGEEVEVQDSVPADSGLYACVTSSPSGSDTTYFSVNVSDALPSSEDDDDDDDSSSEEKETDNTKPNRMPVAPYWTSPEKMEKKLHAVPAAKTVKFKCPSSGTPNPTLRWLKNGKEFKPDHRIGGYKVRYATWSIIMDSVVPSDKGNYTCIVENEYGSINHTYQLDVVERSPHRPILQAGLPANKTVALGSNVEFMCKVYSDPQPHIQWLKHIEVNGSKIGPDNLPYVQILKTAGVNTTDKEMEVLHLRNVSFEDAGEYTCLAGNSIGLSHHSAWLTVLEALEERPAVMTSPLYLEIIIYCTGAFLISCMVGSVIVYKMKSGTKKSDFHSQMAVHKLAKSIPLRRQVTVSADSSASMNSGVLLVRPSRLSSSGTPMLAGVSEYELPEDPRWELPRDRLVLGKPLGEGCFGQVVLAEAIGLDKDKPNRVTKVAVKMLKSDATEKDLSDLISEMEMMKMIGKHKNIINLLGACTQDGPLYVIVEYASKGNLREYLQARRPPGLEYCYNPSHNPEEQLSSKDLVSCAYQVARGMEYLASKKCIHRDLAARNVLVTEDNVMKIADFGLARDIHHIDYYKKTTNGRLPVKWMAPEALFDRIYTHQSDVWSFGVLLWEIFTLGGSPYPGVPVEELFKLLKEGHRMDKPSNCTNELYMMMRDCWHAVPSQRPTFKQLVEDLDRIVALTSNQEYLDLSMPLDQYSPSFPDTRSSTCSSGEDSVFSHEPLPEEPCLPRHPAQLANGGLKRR
Procedure, shortened: as §1

Sequence of FGFR2 (P21802 22-821): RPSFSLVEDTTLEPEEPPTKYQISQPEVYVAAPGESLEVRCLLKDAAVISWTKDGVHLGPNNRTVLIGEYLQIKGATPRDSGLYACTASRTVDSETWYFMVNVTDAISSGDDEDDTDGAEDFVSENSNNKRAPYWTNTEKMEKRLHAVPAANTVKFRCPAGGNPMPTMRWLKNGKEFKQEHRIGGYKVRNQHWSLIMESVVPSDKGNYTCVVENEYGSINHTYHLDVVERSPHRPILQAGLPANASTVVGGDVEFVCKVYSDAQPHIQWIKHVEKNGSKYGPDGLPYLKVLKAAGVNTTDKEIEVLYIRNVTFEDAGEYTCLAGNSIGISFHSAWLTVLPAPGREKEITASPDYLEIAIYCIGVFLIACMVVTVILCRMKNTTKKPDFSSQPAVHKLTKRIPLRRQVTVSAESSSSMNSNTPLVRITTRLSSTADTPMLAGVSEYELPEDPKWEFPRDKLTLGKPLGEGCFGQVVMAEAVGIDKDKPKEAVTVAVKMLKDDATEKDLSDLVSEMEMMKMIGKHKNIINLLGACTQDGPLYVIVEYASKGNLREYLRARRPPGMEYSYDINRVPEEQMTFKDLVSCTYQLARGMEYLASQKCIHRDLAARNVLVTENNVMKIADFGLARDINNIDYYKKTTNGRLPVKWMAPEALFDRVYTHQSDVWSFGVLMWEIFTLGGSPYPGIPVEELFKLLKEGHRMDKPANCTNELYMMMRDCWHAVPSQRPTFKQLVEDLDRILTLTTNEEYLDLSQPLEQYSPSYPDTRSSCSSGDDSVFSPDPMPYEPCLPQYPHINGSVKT

Row | IC50 (FGFR2) [nM] | IC50 (FGFR3) [nM] | IC50 (FGFR1) [nM] | SMILES
1 | < 100 | < 100 | < 100 | COc1cc(OC)c(F)c(N2Cc3cnc4[nH]c(CN5CC[C@H](C#N)C5)cc4c3N(C)C2=O)c1F [Example 133, (3S)-1-{[3-(2,6-difluoro-3,5-dimethoxyphenyl)-1-methyl-2-oxo-2,3,4,7-tetrahydro-1H-pyrrolo[3′,2′:5,6]pyrido[4,3-d]pyrimidin-8-yl]methyl}pyrrolidine-3-carbonitrile]
2 | < 100 | < 100 | < 100 | CCN1CCN(CCc2cc3c4c(cnc3[nH]2)CN(c2c(F)c(OC)cc(OC)c2F)C(=O)N4c2ccccc2F)CC1 [Example 198, 3-(2,6-difluoro-3,5-dimethoxyphenyl)-1-(2-fluorophenyl)-8-[2-(4-ethylpiperazin-1-yl)ethyl]-1,3,4,7-tetrahydro-2H-pyrrolo[3′,2′:5,6]pyrido[4,3-d]pyrimidin-2-one]
3 | < 100 | < 100 | < 100 | COc1cc(OC)c(F)c(N2Cc3cnc4[nH]c(CN5CC(O)C5)cc4c3C(C)(C)C2=O)c1F [Example 206, 7-(2,6-difluoro-3,5-dimethoxyphenyl)-2-[(3-hydroxyazetidin-1-yl)methyl]-9,9-dimethyl-3,6,7,9-tetrahydro-8H-pyrrolo[2,3-c]-2,7-naphthyridin-8-one]
4 | < 100 | < 100 | < 100 | COc1cccc(CN2C(=O)N(c3c(F)c(OC)cc(OC)c3F)Cc3cnc4[nH]ncc4c32)n1 [Example 176, 3-(2,6-difluoro-3,5-dimethoxyphenyl)-1-[(6-methoxypyridin-2-yl)methyl]-1,3,4,7-tetrahydro-2H-pyrazolo[4′,3′:5,6]pyrido[4,3-d]pyrimidin-2-one]
5 | < 100 | < 100 | < 100 | COCCn1cc(N2C(=O)N(c3c(F)c(OC)cc(OC)c3F)Cc3cnc4[nH]ncc4c32)cn1 [Example 174, 3-(2,6-difluoro-3,5-dimethoxyphenyl)-1-[1-(2-methoxyethyl)-1H-pyrazol-4-yl]-1,3,4,7-tetrahydro-2H-pyrazolo[4′,3′:5,6]pyrido[4,3-d]pyrimidin-2-one]
6 | < 100 | < 100 | < 100 | COc1cc(OC)c(F)c(N2Cc3cnc4c(c3N(c3ccc(C#N)cc3F)C2=O)CC(=O)N4)c1F [Example 125, 4-[3-(2,6-difluoro-3,5-dimethoxyphenyl)-2,8-dioxo-2,3,4,7,8,9-hexahydro-1H-pyrrolo[3′,2′:5,6]pyrido[4,3-d]pyrimidin-1-yl]-3-fluorobenzonitrile]
7 | < 100 | < 100 | < 100 | COc1cc(OC)c(F)c(N2Cc3cnc4[nH]c(CN5CCOCC5)cc4c3N(C3CC3)C2=O)c1F [Example 186, 1-cyclopropyl-3-(2,6-difluoro-3,5-dimethoxyphenyl)-8-(morpholin-4-ylmethyl)-1,3,4,7-tetrahydro-2H-pyrrolo[3′,2′:5,6]pyrido[4,3-d]pyrimidin-2-one]
8 | < 100 | < 100 | < 100 | COc1cc(OC)c(F)c(N2Cc3cnc4[nH]c(CCN5CCN(C)CC5)cc4c3N(c3cccc(F)c3)C2=O)c1F [Example 228, 3-(2,6-difluoro-3,5-dimethoxyphenyl)-1-(3-fluorophenyl)-8-[2-(4-methylpiperazin-1-yl)ethyl]-1,3,4,7-tetrahydro-2H-pyrrolo[3′,2′:5,6]pyrido[4,3-d]pyrimidin-2-one]
9 | < 100 | < 100 | < 100 | CCN1C(=O)N(c2c(F)c(OC)cc(OC)c2F)Cc2cnc3[nH]c(CCN4CCOCC4)cc3c21 [Example 185, 3-(2,6-difluoro-3,5-dimethoxyphenyl)-1-ethyl-8-(2-morpholin-4-ylethyl)-1,3,4,7-tetrahydro-2H-pyrrolo[3′,2′:5,6]pyrido[4,3-d]pyrimidin-2-one]
10 | < 100 | < 100 | < 100 | COc1cc(OC)c(F)c(N2Cc3cnc4[nH]c(CN5CC(F)C5)cc4c3C(C)(C)C2=O)c1F [Example 207, 7-(2,6-difluoro-3,5-dimethoxyphenyl)-2-[(3-fluoroazetidin-1-yl)methyl]-9,9-dimethyl-3,6,7,9-tetrahydro-8H-pyrrolo[2,3-c]-2,7-naphthyridin-8-one]
11 | < 100 | < 100 | < 100 | COc1cc(OC)c(F)c(N2Cc3cnc4[nH]ncc4c3N(Cc3cscn3)C2=O)c1F [Example 163, 3-(2,6-Difluoro-3,5-dimethoxyphenyl)-1-(1,3-thiazol-4-ylmethyl)-1,3,4,7-tetrahydro-2H-pyrazolo[4′,3′:5,6]pyrido[4,3-d]pyrimidin-2-one]
12 | < 100 | < 100 | < 100 | COc1cc(OC)c(F)c(N2Cc3cnc4[nH]c(CN[C@@H]5CCOC5)cc4c3N(C)C2=O)c1F [Example 136, 3-(2,6-difluoro-3,5-dimethoxyphenyl)-1-methyl-8-{[(3R)-tetrahydrofuran-3-ylamino]methyl}-1,3,4,7-tetrahydro-2Hpyrrolo[3′,2′:5,6]pyrido[4,3-d]pyrimidin-2-one]

The next lines start with the compound.

Row | SMILES | IC50 (FGFR2) [nM] | IC50 (FGFR3) [nM] | IC50 (FGFR1) [nM]
13 | COc1cc(OC)c(F)c(N2Cc3cnc4[nH]ccc4c3N([C@@H]3CCC[C@H]3O)C2=O)c1F [Example 74, 3-(2,6-difluoro-3,5-dimethoxyphenyl)-1-[(1R,2R)-2-hydroxycyclopentyl]-1,3,4,7-tetrahydro-2H-pyrrolo[3′,2′:5,6]pyrido[4,3-d]pyrimidin-2-one] | < 100 | < 100 | < 100
14 | COc1cc(OC)c(F)c(N2Cc3cnc4c(c3N(c3ccc(Cl)cn3)C2=O)CC(=O)N4)c1F [Example 81, 1-(5-chloropyridin-2-yl)-3-(2,6-difluoro-3,5-dimethoxyphenyl)-3,4,7,9-tetrahydro-1H-pyrrolo[3′,2′:5,6]pyrido[4,3-d]pyrimidine-2,8-dione] | < 100 | < 100 | < 100
15 | COc1cc(OC)c(F)c(N2Cc3cnc4[nH]cc(-c5cnn(C)c5)c4c3N(C)C2=O)c1F [Example 43, 3-(2,6-Difluoro-3,5-dimethoxyphenyl)-1-methyl-9-(1-methyl-1H-pyrazol-4-yl)-1,3,4,7-tetrahydro-2H-pyrrolo[3′,2′:5,6]pyrido[4,3-d]pyrimidin-2-one] | < 100 | < 100 | < 100
16 | COc1cc(OC)c(F)c(N2Cc3cnc4[nH]cc(CC#N)c4c3N(C)C2=O)c1F [Example 105, [3-(2,6-difluoro-3,5-dimethoxyphenyl)-1-methyl-2-oxo-2,3,4,7-tetrahydro-1H-pyrrolo[3′,2′:5,6]pyrido[4,3-d]pyrimidin-9-yl]acetonitrile] | < 100 | < 100 | < 100
17 | COc1cc(OC)c(F)c(N2Cc3cnc4[nH]c(CN5CCC(O)CC5)cc4c3N(C)C2=O)c1F [Example 111, 3-(2,6-difluoro-3,5-dimethoxyphenyl)-8-[(4-hydroxypiperidin-1-yl)methyl]-1-methyl-1,3,4,7-tetrahydro-2H-pyrrolo[3′,2′:5,6]pyrido[4,3-d]pyrimidin-2-one] | < 100 | < 100 | < 100
18 | COc1cc(OC)c(F)c(N2Cc3cnc4c(c3N(Cc3ccccn3)C2=O)CC(=O)N4)c1F [Example 79, 3-(2,6-difluoro-3,5-dimethoxyphenyl)-1-(pyridin-2-ylmethyl)-3,4,7,9-tetrahydro-1H-pyrrolo[3′,2′:5,6]pyrido[4,3-d]pyrimidine-2,8-dione] | < 100 | < 100 | < 100
19 | COc1cc(OC)cc(N2Cc3cnc4[nH]c(C(=O)N5CC(O)C5)cc4c3N(C)C2=O)c1 [Example 20, 3-(3,5-Dimethoxyphenyl)-8-[(3-hydroxyazetidin-1-yl)carbonyl]-1-methyl-1,3,4,7-tetrahydro-2H-pyrrolo[3′,2′:5,6]pyrido[4,3-d]pyrimidin-2-one] | < 100 | < 100 | < 100
20 | COc1cc(OC)cc(N2Cc3cnc4[nH]c(C(=O)N(C)C)cc4c3N(C)C2=O)c1 [Example 19, 3-(3,5-Dimethoxyphenyl)-N,N,1-trimethyl-2-oxo-2,3,4,7-tetrahydro-1H-pyrrolo[3′,2′:5,6]pyrido[4,3-d]pyrimidine-8-carboxamide] | < 100 | < 100 | < 100
21 | COc1cc(OC)c(F)c(N2Cc3cnc4[nH]ncc4c3N(Cc3ccccn3)C2=O)c1F [Example 86, 3-(2,6-difluoro-3,5-dimethoxyphenyl)-1-(pyridin-2-ylmethyl)-1,3,4,7-tetrahydro-2H-pyrazolo[4′,3′:5,6]pyrido[4,3-d]pyrimidin-2-one] | < 100 | < 100 | < 100
22 | COc1cc(OC)c(Cl)c(N2Cc3cnc4[nH]c(-c5ccnn5C)cc4c3N(C)C2=O)c1 [Example 15, 3-(2-Chloro-3,5-dimethoxyphenyl)-1-methyl-8-(1-methyl-1H-pyrazol-5-yl)-1,3,4,7-tetrahydro-2H-pyrrolo[3′,2′:5,6]pyrido[4,3-d]pyrimidin-2-one] | < 100 | < 100 | < 100
23 | COc1cc(OC)c(F)c(N2Cc3cnc4[nH]ccc4c3N(c3cccnc3)C2=O)c1F [Example 83, 3-(2,6-difluoro-3,5-dimethoxyphenyl)-1-pyridin-3-yl-1,3,4,7-tetrahydro-2H-pyrrolo[3′,2′:5,6]pyrido[4,3-d]pyrimidin-2-one] | < 100 | < 100 | < 100
24 | COc1cc(OC)c(F)c(N2Cc3cnc4[nH]ncc4c3NC2=O)c1F [Example 99, 3-(2,6-difluoro-3,5-dimethoxyphenyl)-1,3,4,7-tetrahydro-2H-pyrazolo[4′,3′:5,6]pyrido[4,3-d]pyrimidin-2-one] | < 100 | < 100 | < 100
